Experiment [1] is described as follows: DRUGMATRIX: Calcium Channel Type L, Dihydropyridine radioligand binding (ligand: [3H] Nitrendipine). In kind it is cell membranes, Rattus norvegicus, Wistar, Cerebral cortex, Membrane. As to conditions: Not Active = under 50% inhibition at 10 µM.
Another experiment concerns the target Acetylcholinesterase (Homo sapiens, UniProt P22303). Kind of experiment: DRUGMATRIX: Acetylcholinesterase enzyme inhibition (substrate: acetylthiocholine). In kind it is cell-based, HEK293. To be noted: hek293; Not Active = under 50% inhibition at 10 µM.
The target in experiment [2] is T1, Muscarinic acetylcholine receptor M5 (Homo sapiens, UniProt P08912). Note: in other assays of this panel Not Active means under 50% inhibition at 10 µM.
T1 sequence (P08912 whole entry): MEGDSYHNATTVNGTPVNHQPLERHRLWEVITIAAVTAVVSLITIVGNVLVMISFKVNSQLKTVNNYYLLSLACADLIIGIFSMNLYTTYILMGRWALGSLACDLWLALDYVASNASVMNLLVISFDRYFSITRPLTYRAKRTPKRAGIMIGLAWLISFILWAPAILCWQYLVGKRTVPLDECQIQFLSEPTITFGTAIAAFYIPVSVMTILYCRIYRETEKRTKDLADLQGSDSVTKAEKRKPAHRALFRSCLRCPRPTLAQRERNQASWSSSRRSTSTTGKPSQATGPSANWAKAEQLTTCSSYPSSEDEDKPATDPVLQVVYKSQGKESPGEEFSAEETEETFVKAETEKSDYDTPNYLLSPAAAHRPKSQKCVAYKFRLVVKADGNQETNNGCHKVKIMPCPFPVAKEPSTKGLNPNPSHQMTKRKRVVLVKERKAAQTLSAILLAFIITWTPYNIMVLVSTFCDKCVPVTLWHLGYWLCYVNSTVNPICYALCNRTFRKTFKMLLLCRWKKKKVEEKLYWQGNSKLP
Format: cell membranes, CHO-K1, Membrane. As to conditions: for Ki: read-out: Ki.

The next experiment concerns the target Cannabinoid receptor 1 (Homo sapiens, UniProt P21554). In kind it is cell membranes, Chem-1, Membrane. To be noted: chem-1. Note: in other assays of this panel Not Active means under 50% inhibition at 10 µM.
Experiment [3] is described as follows: DRUGMATRIX: Imidazoline I2, Central radioligand binding (ligand: [3H] Idazoxan). In kind it is cell membranes, Rattus norvegicus, Wistar, Cerebral cortex, Membrane. As to conditions: Not Active = under 50% inhibition at 10 µM.
Experiment [4] addresses Epidermal growth factor receptor (Homo sapiens, UniProt P00533). Kind of experiment: DRUGMATRIX: Protein Tyrosine Kinase, EGF Receptor enzyme inhibition (substrate: Poly(Glu:Tyr)). As to conditions: insect cells; Not Active = under 50% inhibition at 10 µM. Format: cell-based, Insect cells.

Molecules are shown by their SMILES.

Epidermal growth factor receptor, sequence (P00533 whole entry): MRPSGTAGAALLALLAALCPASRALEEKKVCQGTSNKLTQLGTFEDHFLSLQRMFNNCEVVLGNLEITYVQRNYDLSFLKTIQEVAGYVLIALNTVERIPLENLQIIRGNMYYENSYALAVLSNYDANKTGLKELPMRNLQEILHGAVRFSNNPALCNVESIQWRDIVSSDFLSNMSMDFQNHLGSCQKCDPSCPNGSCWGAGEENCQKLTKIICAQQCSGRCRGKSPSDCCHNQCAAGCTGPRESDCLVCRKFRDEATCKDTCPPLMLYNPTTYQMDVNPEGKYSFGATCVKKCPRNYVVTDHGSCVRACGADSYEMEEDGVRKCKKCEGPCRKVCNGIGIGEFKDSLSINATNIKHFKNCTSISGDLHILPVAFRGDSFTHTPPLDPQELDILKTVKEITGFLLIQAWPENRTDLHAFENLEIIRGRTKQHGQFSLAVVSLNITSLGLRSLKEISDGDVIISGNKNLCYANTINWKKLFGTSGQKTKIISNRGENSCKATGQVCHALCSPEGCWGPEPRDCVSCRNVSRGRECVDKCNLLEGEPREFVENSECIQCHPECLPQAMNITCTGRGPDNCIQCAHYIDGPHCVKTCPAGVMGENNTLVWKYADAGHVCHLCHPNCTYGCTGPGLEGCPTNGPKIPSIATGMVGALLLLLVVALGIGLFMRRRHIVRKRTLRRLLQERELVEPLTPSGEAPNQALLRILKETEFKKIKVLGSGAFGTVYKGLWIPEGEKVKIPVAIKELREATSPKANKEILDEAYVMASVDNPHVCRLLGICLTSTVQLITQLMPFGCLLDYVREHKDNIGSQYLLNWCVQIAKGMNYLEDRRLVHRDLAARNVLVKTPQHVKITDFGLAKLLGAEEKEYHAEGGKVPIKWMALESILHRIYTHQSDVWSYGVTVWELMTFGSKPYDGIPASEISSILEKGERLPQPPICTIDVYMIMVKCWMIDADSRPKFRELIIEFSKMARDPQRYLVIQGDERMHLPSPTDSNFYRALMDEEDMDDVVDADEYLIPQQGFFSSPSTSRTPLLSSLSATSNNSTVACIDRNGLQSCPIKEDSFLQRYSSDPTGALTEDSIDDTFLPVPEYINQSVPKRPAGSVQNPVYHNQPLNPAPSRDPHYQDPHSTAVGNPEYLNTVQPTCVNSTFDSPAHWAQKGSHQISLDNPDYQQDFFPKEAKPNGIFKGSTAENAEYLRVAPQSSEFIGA
Cannabinoid receptor 1, sequence (P21554 whole entry): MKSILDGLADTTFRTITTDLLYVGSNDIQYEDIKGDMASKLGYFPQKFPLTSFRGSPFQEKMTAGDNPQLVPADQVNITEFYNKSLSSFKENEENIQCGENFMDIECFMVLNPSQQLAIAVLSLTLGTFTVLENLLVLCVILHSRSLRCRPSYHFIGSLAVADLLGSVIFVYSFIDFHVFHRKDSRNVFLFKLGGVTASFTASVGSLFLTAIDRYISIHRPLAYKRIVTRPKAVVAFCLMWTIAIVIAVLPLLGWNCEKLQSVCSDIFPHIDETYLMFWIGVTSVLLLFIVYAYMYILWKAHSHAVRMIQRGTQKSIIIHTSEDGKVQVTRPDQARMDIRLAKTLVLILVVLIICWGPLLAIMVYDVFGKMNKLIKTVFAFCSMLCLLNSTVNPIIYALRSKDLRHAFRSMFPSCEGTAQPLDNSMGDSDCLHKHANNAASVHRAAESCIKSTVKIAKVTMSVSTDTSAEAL
Acetylcholinesterase, sequence (P22303 whole entry): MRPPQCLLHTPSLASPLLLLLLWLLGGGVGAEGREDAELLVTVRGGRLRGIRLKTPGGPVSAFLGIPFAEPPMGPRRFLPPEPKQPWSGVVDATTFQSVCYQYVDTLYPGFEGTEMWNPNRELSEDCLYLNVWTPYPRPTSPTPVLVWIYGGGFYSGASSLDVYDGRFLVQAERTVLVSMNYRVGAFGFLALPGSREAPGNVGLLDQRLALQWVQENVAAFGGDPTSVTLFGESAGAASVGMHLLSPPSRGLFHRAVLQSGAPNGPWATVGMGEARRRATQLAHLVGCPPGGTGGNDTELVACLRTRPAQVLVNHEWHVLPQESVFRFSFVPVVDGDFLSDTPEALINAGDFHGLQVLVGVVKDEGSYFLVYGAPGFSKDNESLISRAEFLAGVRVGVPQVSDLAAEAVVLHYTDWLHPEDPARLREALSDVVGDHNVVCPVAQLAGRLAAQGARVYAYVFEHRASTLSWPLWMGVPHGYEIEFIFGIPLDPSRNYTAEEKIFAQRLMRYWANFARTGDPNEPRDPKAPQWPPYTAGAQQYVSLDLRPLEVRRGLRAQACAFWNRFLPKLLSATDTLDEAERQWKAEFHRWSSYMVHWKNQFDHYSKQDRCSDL

A word on the IC50: it is the midpoint of a concentration-inhibition curve. Usually Ki stands for a dissociation constant, usually derived from enzyme kinetics or from competition with a known ligand. Consider `COC(=O)Nc1nc2cc(C(=O)c3ccc(F)cc3)ccc2[nH]1` [FLUBENDAZOLE], for which the half-maximal inhibitory concentration (IC50) result (in experiment [1]; at Acetylcholinesterase; in experiment [2] (cho-k1); against Cannabinoid receptor 1; in experiment [3]; in experiment [4]) was “Not Active” each time. Besides, the inhibition constant (Ki) result in experiment [1] and in experiment [3] was “Not Active” throughout.
Turning to `CC(=O)OCC(=O)[C@@]1(O)CC[C@H]2[C@@H]3CCC4=CC(=O)CC[C@]4(C)[C@@]3(F)[C@@H](O)C[C@@]21C` [FLUDROCORTISONE ACETATE], the concentration for half-maximal inhibition (IC50) entry (in experiment [1]; against Acetylcholinesterase; in experiment [2] (cho-k1); on Cannabinoid receptor 1; in experiment [3]; in experiment [4]) was “Not Active” throughout. The Ki result in experiment [1] and in experiment [3] was “Not Active” in each case.
Turning to `CCOC(=O)c1ncn2c1CN(C)C(=O)c1cc(F)ccc1-2` [FLUMAZENIL], the IC50 entry (in experiment [1]; against Acetylcholinesterase; in experiment [2] (cho-k1); on Cannabinoid receptor 1; in experiment [3]; in experiment [4]) was “Not Active” in each case. The inhibitory constant (Ki) entry in experiment [1] and in experiment [3] was “Not Active” each time.
With `CC(=O)OCC(=O)[C@@]12OC(C)(C)O[C@@H]1C[C@H]1[C@@H]3C[C@H](F)C4=CC(=O)C=C[C@]4(C)[C@@]3(F)[C@@H](O)C[C@@]12C` [FLUOCINONIDE], the IC50 result (in experiment [1]; against Acetylcholinesterase; in experiment [2] (cho-k1); at Cannabinoid receptor 1; in experiment [3]; in experiment [4]) was “Not Active” in each case. Moreover, the Ki result in experiment [1] and in experiment [3] was “Not Active” in each case.
`O=C(O)P(=O)(O)O` [FOSCARNET]: the concentration for half-maximal inhibition (IC50) entry (in experiment [1]; at Acetylcholinesterase; in experiment [2] (cho-k1); against Cannabinoid receptor 1; in experiment [3]; in experiment [4]) was “Not Active” each time. Moreover, the inhibition constant (Ki) entry in experiment [1] and in experiment [3] was “Not Active” each time.
As to `Cc1ccc(C)c(OCCCC(C)(C)C(=O)O)c1` [GEMFIBROZIL], the IC50 entry (in experiment [1]; against Acetylcholinesterase; in experiment [2] (cho-k1); on Cannabinoid receptor 1; in experiment [3]; in experiment [4]) was “Not Active” each time. For the same compound, the inhibitory constant (Ki) result in experiment [1] and in experiment [3] was “Not Active” in each case.
In the case of `CCC1=C(C)CN(C(=O)NCCc2ccc(S(=O)(=O)NC(=O)N[C@H]3CC[C@H](C)CC3)cc2)C1=O` [GLIMEPIRIDE], the IC50 entry (in experiment [1]; on Acetylcholinesterase; in experiment [2] (cho-k1); against Cannabinoid receptor 1; in experiment [3]; in experiment [4]) was “Not Active” throughout. The inhibition constant (Ki) entry in experiment [1] and in experiment [3] was “Not Active” each time.
`Nc1cc(-c2ccncc2)c[nH]c1=O` [INAMRINONE]: the IC50 result (in experiment [1]; on Acetylcholinesterase; in experiment [2] (cho-k1); against Cannabinoid receptor 1; in experiment [3]; in experiment [4]) was “Not Active” in each case. Moreover, the inhibitory constant (Ki) entry in experiment [1] and in experiment [3] was “Not Active” throughout.
Turning to `CCCCC1=NC2(CCCC2)C(=O)N1Cc1ccc(-c2ccccc2-c2nnn[nH]2)cc1` [IRBESARTAN], the concentration for half-maximal inhibition (IC50) entry (in experiment [1]; against Acetylcholinesterase; in experiment [2] (cho-k1); on Cannabinoid receptor 1; in experiment [3]; in experiment [4]) was “Not Active” each time. Besides, the inhibition constant (Ki) result in experiment [1] and in experiment [3] was “Not Active” in each case.
With `CN1CCC(=C2c3ccccc3CC(=O)c3sccc32)CC1` [KETOTIFEN], the IC50 result in experiment [1] is “Not Active”; on Acetylcholinesterase, “Not Active”; in experiment [2] (read-out: IC50), 374 nM; against Cannabinoid receptor 1, “Not Active”; in experiment [3], “Not Active”; in experiment [4] it was “Not Active”. Moreover, the inhibition constant Ki entry in experiment [1] was “Not Active”; in experiment [2], 269 nM; in experiment [3] it was “Not Active”.
Consider `N[C@@H](Cn1ccc(=O)c(O)c1)C(=O)O` [L-MIMOSINE], for which the half-maximal inhibitory concentration (IC50) result (in experiment [1]; at Acetylcholinesterase; in experiment [2] (cho-k1); at Cannabinoid receptor 1; in experiment [3]; in experiment [4]) was “Not Active” in each case. The Ki result in experiment [1] and in experiment [3] was “Not Active” throughout.
For `C[N+](C)(C)C[C@H](O)CC(=O)[O-]` [LEVOCARNITINE], the 50% inhibitory concentration (IC50) result (in experiment [1]; against Acetylcholinesterase; in experiment [2] (cho-k1); against Cannabinoid receptor 1; in experiment [3]; in experiment [4]) was “Not Active” throughout. The inhibitory constant (Ki) result in experiment [1] and in experiment [3] was “Not Active” in each case.
Turning to `C[C@H]1COc2c(N3CCN(C)CC3)c(F)cc3c(=O)c(C(=O)O)cn1c23.C[C@H]1COc2c(N3CCN(C)CC3)c(F)cc3c(=O)c(C(=O)O)cn1c23.O` [LEVOFLOXACIN], the IC50 result (in experiment [1]; against Acetylcholinesterase; in experiment [2] (cho-k1); at Cannabinoid receptor 1; in experiment [3]; in experiment [4]) was “Not Active” each time. Also, the Ki result in experiment [1] and in experiment [3] was “Not Active” each time.
As to `CCn1cc(C(=O)O)c(=O)c2cc(F)c(N3CCNC(C)C3)c(F)c21` (stereo not drawn) [LOMEFLOXACIN], the IC50 result (in experiment [1]; on Acetylcholinesterase; in experiment [2] (cho-k1); at Cannabinoid receptor 1; in experiment [3]; in experiment [4]) was “Not Active” in each case. Further, the inhibitory constant (Ki) result in experiment [1] and in experiment [3] was “Not Active” throughout.
With `CN1CCCC(CN2c3ccccc3Sc3ccccc32)C1` (stereo not drawn) [MEPAZINE], the 50% inhibitory concentration (IC50) result is “Not Active” in experiment [1]; “Not Active” against Acetylcholinesterase; 40 nM in experiment [2] (read-out: IC50); “Not Active” against Cannabinoid receptor 1; “Not Active” in experiment [3]; “Not Active” in experiment [4]. The inhibitory constant (Ki) entry is “Not Active” in experiment [1], 28 nM in experiment [2] and “Not Active” in experiment [3].
As to `Cc1cccc(C)c1NC(=O)C1CCCCN1C` (stereo not drawn) [MEPIVACAINE], the IC50 entry (in experiment [1]; against Acetylcholinesterase; in experiment [2] (cho-k1); against Cannabinoid receptor 1; in experiment [3]; in experiment [4]) was “Not Active” throughout. The Ki result in experiment [1] and in experiment [3] was “Not Active” throughout.
Turning to `CN(C)C(=N)NC(=N)N` [METFORMIN], the IC50 result (in experiment [1]; on Acetylcholinesterase; in experiment [2] (cho-k1); against Cannabinoid receptor 1; in experiment [3]; in experiment [4]) was “Not Active” in each case. In addition, the Ki entry in experiment [1] and in experiment [3] was “Not Active” throughout.
With `CC(C)(C)NCC(O)COc1cccc2c1CC(O)C(O)C2` (stereo not drawn) [NADOLOL], the IC50 entry (in experiment [1]; on Acetylcholinesterase; in experiment [2] (cho-k1); on Cannabinoid receptor 1; in experiment [3]; in experiment [4]) was “Not Active” each time. The Ki result in experiment [1] and in experiment [3] was “Not Active” in each case.
Regarding `C[C@]12CC[C@H]3[C@@H](CCC4=CC(=O)CC[C@@H]43)[C@@H]1CC[C@@H]2O` [NANDROLONE], the IC50 result (in experiment [1]; against Acetylcholinesterase; in experiment [2] (cho-k1); against Cannabinoid receptor 1; in experiment [3]; in experiment [4]) was “Not Active” in each case. Besides, the inhibition constant (Ki) entry in experiment [1] and in experiment [3] was “Not Active” each time.
Turning to `C[C@@H]1C/C=C/C=C/C=C/C=C/[C@H](O[C@@H]2O[C@H](C)[C@@H](O)[C@H](N)[C@@H]2O)C[C@@H]2O[C@](O)(C[C@@H](O)C[C@H]3O[C@@H]3/C=C/C(=O)O1)C[C@H](O)[C@H]2C(=O)O` [NATAMYCIN], the concentration for half-maximal inhibition (IC50) entry (in experiment [1]; against Acetylcholinesterase; in experiment [2] (cho-k1); at Cannabinoid receptor 1; in experiment [3]; in experiment [4]) was “Not Active” throughout. For the same compound, the inhibition constant Ki result in experiment [1] and in experiment [3] was “Not Active” each time.
As to `NC(=O)c1cccnc1` [NIACINAMIDE], the IC50 entry (in experiment [1]; at Acetylcholinesterase; in experiment [2] (cho-k1); against Cannabinoid receptor 1; in experiment [3]; in experiment [4]) was “Not Active” each time. The Ki entry in experiment [1] and in experiment [3] was “Not Active” in each case.
With `CS(=O)(=O)Nc1ccc([N+](=O)[O-])cc1Oc1ccccc1` [NIMESULIDE], the IC50 entry (in experiment [1]; against Acetylcholinesterase; in experiment [2] (cho-k1); against Cannabinoid receptor 1; in experiment [3]; in experiment [4]) was “Not Active” in each case. Further, the inhibitory constant (Ki) result in experiment [1] and in experiment [3] was “Not Active” throughout.

For the origin of these results see ChEMBL document CHEMBL1909046, “DrugMatrix in vitro pharmacology data”.
